Results on 27 compounds are retold here after US20070299062A1 (The Procter & Gamble Company, priority 2006, published 2007).

Structures are written as SMILES. Read-outs that look alike come from different tables or passages of the source.

One test deals with MCH-1R (UniProt Q99705). In words: MCH-1R competition binding assay. As to the method:
In vitro binding and function assays are performed on membranes derived from cells or tissues expressing endogenous MCH1R. Competition binding assays are performed to identify high affinity compounds. Briefly, either radiolabeled or europium labeled MCH with varying concentrations of competitor compound which are incubated with membranes expressing the receptor. Rat brain membrane or cell lines, including but not limited to human Kelly neuroblastoma cells, A-431 epidermoid cells, and rat PC-12 cells are known to express endogenous MCH1R and are used in the assay. Binding is allowed to proceed until equilibrium is reached then bound labeled MCH is separated from free MCH by capturing membranes onto a filter. The filters are washed to remove loosely associated MCH and labeled MCH is quantified. Data is analyzed and IC50 and Ki are calculated to determine compound affinity.

The next test addresses T1, 5-HT2c receptor (Homo sapiens, UniProt P28335).
T1 construct: purchased Perkin-Elmer or Euroscreen (named only as possible suppliers)
T1 sequence (P28335 33-458): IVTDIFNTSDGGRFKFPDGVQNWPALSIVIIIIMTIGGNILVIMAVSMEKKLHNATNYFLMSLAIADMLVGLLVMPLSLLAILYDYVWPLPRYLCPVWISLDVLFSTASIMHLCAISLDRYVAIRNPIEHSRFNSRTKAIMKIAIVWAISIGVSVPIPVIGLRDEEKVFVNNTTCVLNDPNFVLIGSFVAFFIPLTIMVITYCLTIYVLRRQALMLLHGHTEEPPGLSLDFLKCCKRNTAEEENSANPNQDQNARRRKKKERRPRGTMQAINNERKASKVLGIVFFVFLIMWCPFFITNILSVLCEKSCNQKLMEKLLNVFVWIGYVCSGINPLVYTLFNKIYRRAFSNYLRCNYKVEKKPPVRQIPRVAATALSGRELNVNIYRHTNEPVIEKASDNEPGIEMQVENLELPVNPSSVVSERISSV
In words: 5-HT2c receptor binding assay (3H-mesulergine competition). As to the method: MCH antagonist compounds are evaluated for binding to the serotonin 5-HT2c receptor to determine receptor selectivity. Binding activity is assessed using a competitive assay with ^3H-mesulergine (Perkin Elmer), a 5-HT2c selective ligand, on membrane containing the 5-HT2c receptor. Briefly, 1 nM ^3H-mesulergine and varying concentrations of the compound are incubated with 5-HT2c receptor membranes, following an incubation period, the membranes are washed and ^3H-mesulergine bound to membranes is measured in a liquid scintillation counter. The amount of bound ^3H-mesulergine at the varying concentration of competitor compound is used to derive the affinity (Ki) of the compound for the 5-HT2c receptor. 5-HT2c receptor containing membranes are readily available from several companies including Perkin-Elmer and Euroscreen.

The mark [1] stands for this setting: 1 nM 3H-mesulergine, read-out: Ki (nM) binding data 5-HT2C.

Usually Ki stands for a dissociation constant, usually derived from enzyme kinetics or from competition with a known ligand. As for `O=c1c2sc(-c3ccc(Cl)cc3)cc2ncn1[C@H]1CCc2cc(CN3CCCCC3)ccc2C1` [(S)-6-(4-Chlorophenyl)-3-(6-piperidin-1-ylmethyl-1,2,3,4-tetrahydronaphthalen-2-yl)thieno[3,2-d]pyrimidin-4(3H)-one], the values for the Ki at MCH-1R and on 5-HT2c receptor (setting [1]) were 24.3 nM and 3730 nM, respectively.
For `CS(=O)(=O)N1CCN(Cc2ccc3c(c2)CC[C@H](n2cnc4cc(-c5ccc(Cl)cc5)sc4c2=O)C3)CC1` [(S)-6-(4-Chlorophenyl)-3-(6-((4-methylsulfonyl)piperazin-1-yl)methyl)-1,2,3,4-tetrahydronapthalen-2-yl)thieno[3,2,-d]pyrimidin-4(3H)-one] the same measures were 65 nM and more than 100000 nM.
For the compound `CCN(CC)Cc1ccc2c(c1)CC[C@H](n1cnc3cc(-c4ccc(Cl)cc4)sc3c1=O)C2` [(S)-6-(4-Chlorophenyl)-3-(6-diethylaminomethyl-1,2,3,4-tetrahydronaphthalen-2-yl)-4a,7a-dihydro-3H-thieno[3,2-d]pyrimidin-4-one], the inhibition constant (Ki) came to 13 nM on MCH-1R and 6780 nM at 5-HT2c receptor.
As to `CNCc1ccc2c(c1)CC[C@H](n1cnc3cc(-c4ccc(Cl)cc4)sc3c1=O)C2` [6-(4-Chlorophenyl)-3-((S)-6-methylaminomethyl-1,2,3,4-tetrahydronapthealen-2-yl)thieno[3,2-d]pyrimidin-4(3H)-one], the inhibitory constant (Ki) was 0.4 nM on MCH-1R and 2140 nM at 5-HT2c receptor (setting [1]).
Take `CC(=O)N1CCN(Cc2ccc3c(c2)CC[C@H](n2cnc4cc(-c5cccs5)sc4c2=O)C3)CC1` [(S)-3-[6-(4-Acetylpiperazin-1-ymethyl)-1,2,3,4-tetrahydronapthalen-2-yl]-6-(thien-2-yl)thieno[3,2-d]pyrimidin-4(3H)-one]: the Ki at MCH-1R was 270 nM; on 5-HT2c receptor (setting [1]) it was 1760 nM.
Turning to `CS(=O)(=O)N1CCN(Cc2ccc3c(c2)CC[C@H](n2cnc4cc(-c5cccnc5)sc4c2=O)C3)CC1`, the results for the Ki at MCH-1R and at 5-HT2c receptor (setting [1]) were 752 nM and more than 100000 nM, respectively.
For `CN(CCS(C)(=O)=O)Cc1ccc2c(c1)CC[C@H](n1cnc3cc(-c4ccc(Cl)cc4)sc3c1=O)C2` [6-(4-Chlorophenyl)-3-((S)-6-{[2-methanesulfonylethyl)methylamino]methyl}-1,2,3,4-tetrahydronapthealen-2-yl)thieno[3,2-d]pyrimidin-4(3H)-one] the same measures were 15.8 nM and more than 100000 nM.
Turning to `CC(=O)N1CCN(Cc2ccc3c(c2)CC[C@H](n2cnc4cc(-c5ccc(C)cc5)sc4c2=O)C3)CC1` [(S)-3-[6-(4-Acetylpiperazin-1-ymethyl)-1,2,3,4-tetrahydronapthalen-2-yl]-6-(4-methylphenyl)thieno[3,2-d]pyrimidin-4(3H)-one], the inhibition constant (Ki) on MCH-1R was determined as 16.1 nM; at 5-HT2c receptor (setting [1]) it was 5460 nM.
For `CC(=O)N1CCN(Cc2ccc3c(c2)CC[C@H](n2cnc4cc(-c5ccncc5)sc4c2=O)C3)CC1` [(S)-3-[6-(4-Acetylpiperazin-1-ymethyl)-1,2,3,4-tetrahydronapthalen-2-yl]-6-(pyridin-4-yl)thieno[3,2-d]pyrimidin-4(3H)-one] the same measures were 988 nM and 8090 nM.
Consider `CS(=O)(=O)N1CCN(Cc2ccc3c(c2)CC[C@H](n2cnc4cc(-c5ccc(Cl)cc5Cl)sc4c2=O)C3)CC1`, for which the inhibition constant Ki at MCH-1R was 107 nM; at 5-HT2c receptor (setting [1]), more than 100000 nM.
Take `O=c1c2sc(-c3ccc(Cl)cc3)cc2ncn1[C@H]1CCc2cc(CN3CCS(=O)(=O)CC3)ccc2C1` [(S)-6-(4-Chlorophenyl)-3-[6-(1,1-dioxo-1λ^6-thiomorpholin-4-ylmethyl)-1,2,3,4-tetrahydronaphthalen-2-yl)thieno[3,2-d]pyrimidin-4(3H)-one]: the values for the Ki at MCH-1R and at 5-HT2c receptor (setting [1]) were 1020 nM and more than 100000 nM, respectively.
On to `C[C@H](O)CNCc1ccc2c(c1)CC[C@H](n1cnc3cc(-c4ccc(Cl)cc4)sc3c1=O)C2` [6-(4-Chlorophenyl)-3-{(S)-6-[(S)-2-hydroxypropylaminomethyl]-1,2,3,4-tetrahydronapthealen-2-yl}thieno[3,2-d]pyrimidin-4(3H)-one], for which the inhibition constant (Ki) amounted to 25 nM on MCH-1R and 3080 nM at 5-HT2c receptor (setting [1]).
With `CS(=O)(=O)N1CCN(Cc2ccc3c(c2)CC[C@H](n2cnc4cc(-c5ccoc5)sc4c2=O)C3)CC1`, the inhibition constant (Ki) is 733 nM at MCH-1R and more than 100000 nM on 5-HT2c receptor (setting [1]).
Turning to `CS(=O)(=O)N1CCN(Cc2ccc3c(c2)CC[C@H](n2cnc4cc(-c5ccnc(Cl)c5)sc4c2=O)C3)CC1`, the Ki is 157 nM on MCH-1R and more than 100000 nM at 5-HT2c receptor (setting [1]).
Taken in the same sequence, the figures for `O=c1c2sc(-c3ccc(Cl)cc3)cc2ncn1[C@H]1CCc2cc(CNC(CO)CO)ccc2C1` [6-(4-Chlorophenyl)-3-{(S)-6-[(2-hydroxy-1-hydroxymethylethylamino)methyl]-1,2,3,4-tetrahydronapthealen-2-yl}thieno[3,2-d]pyrimidin-4(3H)-one] were 10.7 nM and more than 100000 nM.
Consider `CN(C)Cc1ccc2c(c1)CC[C@H](n1cnc3cc(-c4ccc(Cl)cc4)sc3c1=O)C2` [6-(4-Chlorophenyl)-3-((S)-6-dimethylaminomethyl-1,2,3,4-tetrahydronapthealen-2-yl)thieno[3,2-d]pyrimidin-4(3H)-one], for which the Ki at MCH-1R turned out to be 7.4 nM; at 5-HT2c receptor (setting [1]) it was 3170 nM.
With `CS(=O)(=O)N1CCN(Cc2ccc3c(c2)CC[C@H](n2cnc4cc(-c5cccc(C#N)c5)sc4c2=O)C3)CC1`, the Ki on MCH-1R was 310 nM; on 5-HT2c receptor (setting [1]), more than 100000 nM.
In the case of `CC(=O)N1CCN(Cc2ccc3c(c2)CC[C@H](n2cnc4cc(-c5cncc(F)c5)sc4c2=O)C3)CC1` [(S)-3-[6-(4-Acetylpiperazin-1-ymethyl)-1,2,3,4-tetrahydronapthalen-2-yl]-6-(5-fluoropyridin-3-yl)thieno[3,2-d]pyrimidin-4(3H)-one], the Ki is 97 nM at MCH-1R and more than 100000 nM at 5-HT2c receptor (setting [1]).
Taken in the same sequence, the figures for `CC(=O)N1CCN(Cc2ccc3c(c2)CC[C@H](n2cnc4cc(-c5cccnc5)sc4c2=O)C3)CC1` [(S)-3-[6-(4-Acetylpiperazin-1-ymethyl)-1,2,3,4-tetrahydronapthalen-2-yl]-6-(pyridin-3-yl)thieno[3,2-d]pyrimidin-4(3H)-one] were 1930 nM and more than 100000 nM.
As for `CC(=O)N1CCN(Cc2ccc3c(c2)CC[C@H](n2cnc4cc(-c5ccsc5)sc4c2=O)C3)CC1` [(S)-3-[6-(4-Acetylpiperazin-1-ymethyl)-1,2,3,4-tetrahydronapthalen-2-yl]-6-(thien-3-yl)thieno[3,2-d]pyrimidin-4(3H)-one], the Ki at MCH-1R turned out to be 137 nM; at 5-HT2c receptor (setting [1]), 2010 nM.
On to `CS(=O)(=O)N1CCN(Cc2ccc3c(c2)CC[C@H](n2cnc4cc(-c5ccc(Cl)c(Cl)c5)sc4c2=O)C3)CC1`, for which the inhibitory constant (Ki) at MCH-1R is 142 nM; on 5-HT2c receptor (setting [1]), more than 100000 nM.
Consider `CC(=O)N1CCN(Cc2ccc3c(c2)CC[C@H](n2cnc4cc(-c5ccc(F)cc5F)sc4c2=O)C3)CC1` [(S)-3-[6-(4-Acetylpiperazin-1-ymethyl)-1,2,3,4-tetrahydronapthalen-2-yl]-6-(2,4-difluorophenyl)thieno[3,2-d]pyrimidin-4(3H)-one], for which the inhibition constant (Ki) at MCH-1R is 8.4 nM; on 5-HT2c receptor (setting [1]), more than 100000 nM.
Consider `CC(=O)N1CCN(Cc2ccc3c(c2)CC[C@H](n2cnc4cc(-c5ccc(Cl)cc5Cl)sc4c2=O)C3)CC1` [(S)-3-[6-(4-Acetylpiperazin-1-ymethyl)-1,2,3,4-tetrahydronapthalen-2-yl]-6-(2,4dichlorophenyl)thieno[3,2-d]pyrimidin-4(3H)-one], for which the Ki on MCH-1R was found to be 24.7 nM; on 5-HT2c receptor (setting [1]), 2370 nM.
For `CS(=O)(=O)N1CCN(Cc2ccc3c(c2)CC[C@H](n2cnc4cc(-c5cncc(Cl)c5)sc4c2=O)C3)CC1`, the Ki on MCH-1R was 21 nM; on 5-HT2c receptor, more than 100000 nM.
With `CC(=O)N1CCN(Cc2ccc3c(c2)CC[C@H](n2cnc4cc(-c5cccc(F)c5)sc4c2=O)C3)CC1` [(S)-3-[6-(4-Acetylpiperazin-1-ymethyl)-1,2,3,4-tetrahydronapthalen-2-yl]-6-(3-fluorophenyl)thieno[3,2-d]pyrimidin-4-(3H)one], the inhibition constant (Ki) at MCH-1R was 17.9 nM; on 5-HT2c receptor (setting [1]) it was more than 100000 nM.
`CS(=O)(=O)N1CCN(Cc2ccc3c(c2)CC[C@H](n2cnc4cc(-c5ccc(F)c(F)c5)sc4c2=O)C3)CC1`: the Ki at MCH-1R was 39.3 nM; at 5-HT2c receptor (setting [1]), more than 100000 nM.
With `CC(=O)N1CCN(Cc2ccc3c(c2)CC[C@H](n2cnc4cc(-c5cccc(Cl)c5)sc4c2=O)C3)CC1` [(S)-3-[6-(4-Acetylpiperazin-l-ymethyl)-1,2,3,4-tetrahydronapthalen-2-yl]-6-(3-chlorophenyl)thieno[3,2-d]pyrimidin-4(3H)-one], the inhibition constant Ki on MCH-1R is 70.5 nM; on 5-HT2c receptor (setting [1]) it was more than 100000 nM.
